In US6469049B1, “Method of treating, preventing or inhibiting central nervous system injuries and diseases” (The United States of America as represented by the …, priority 2000, dated 2002):
“Also recorded” adds a separate entry of the source.

Assays:
cultured neurons = assay: H2O2-induced oxidative insult in cultured neurons, MTT assay of neuroprotection; assay type: cell-based, rat; conditions: for effect on the neuroprotective efficacy of DHL: H2O2 insult; for % Neuroprotection: 4 h incubation, then 50 μM H2O2 30 min, MTT after 24 h, mean ± SEM
Description: (§1) Primary cultures may be established following the procedures outlined by Koenig, M. L., et al., (1996) Brain Res. 730:143-149, which is herein incorporated by reference. The forebrains of fetal rat pups (embryonic day 15) are isolated and the cells are dispersed by repeated trituration in neuronal culture medium (NCM). NCM comprises a 1:1 ratio of Ham's F-12 (Biofluids, Rockville, Md.) to Basal Medium Eagle (Sigma, St. Louis, Mo.), supplemented with 0.6 g/L of dextrose, 0.35% glutamine and 1% Pen-Strep (Biofluids. Rockville, Md.). Following centrifugation at 900×g for 5 minutes, the cells are plated onto poly-L-lysine-coated 48 well plates at a density of 10^6 cells/ml. To suppress glial growth. the cultures are treated with cytosine arabinoside (10^−5 M) for 4 days. All cultures are maintained in an incubator comprising 5% CO2 at 37° C. for about 6 days to about 15 days prior to use.
Oxidative injury is assessed by using an MTT assay (Sigma, St. Louis, Mo.). About 24 h after exposure to either hemoglobin or an oxidative insult, MTT is added to each test well such that the final concentration of the dye is about 0.15 mg/ml. Plates are returned to the incubator for about 1 hr at which time unincorporated MTU is removed and the plates are allowed to air dry. The purple formazan product indicative of viable cells is then dissolved by adding about 250 μl of acidified isopropanol comprising about 95% isopropanol and about 5% 2N HCl. About 200 μl aliquots are collected and the absorbance of these aliquots are measured on an ELISA plate reader at about 540 nm. Control (untreated) wells are included in each experiment, and viability is calculated as the percentage of mean control values for each plate.
(§2) Cultured neurons were incubated with four DHL concentrations, 3.0, 10.0, 30.0, and 100.0 micromolar of DHL, with or without 10 mM SPBN for four hours. After incubation. an oxidative insult was applied by adding 50 micromolar of H2O2 for 30 minutes after which the medium was removed and replaced with Minimum Essential Medium (MEM) (Sigma. St. Louis, Mo.). After 24 hours, the colormetric MTT assay as described above was conduced to determine amount of neuroprotection.
as §2, with “30.0.” for “30.0,”, “PBN” for “SPBN”, “incubation,” for “incubation.”, “[…]” for “removed and replaced”, “(Sigma,” for “(Sigma.”

[1] = test system: cultured mouse hippocampal HT4 cells; conditions: cited from earlier work
rats = assay: Experimental spinal cord injury (dynorphin A injection) in rats, motor scores; assay type: in vivo; conditions: rat, about 5 micromoles DHLA intrathecally, 2 hour pretreatment and treatment after injury
Description: Here, about 5 micromoles of DHLA was administered intrathecally as a 2 hour pretreatment. Flaccid paralysis was acutely evident about 10 minutes after injection with dynorphin A and where there was no pretreatment with DHLA or co-treatment with DHLA. […] See Long et al., (1999) Neurosci. Abs. 25, which is herein incorporated reference.

[2] = test system: primary cultures of neurons derived from the forebrains of E-15 rat fetuses; assay: Hemoglobin-induced toxicity in cultured neurons, MTT viability assay; assay type: cell-based
Description: See Koenig et al., (1999) Neurosci. Abs., 25, which is herein incorporated by reference. […] […] Neuronal viability was assessed by using the calorimetric MT assay of succinate dehydrogenase activity. MTT is a calorimetric dye, 3-(4,5-dimethylthiazol-2-yl)-2,5-diphenyltetrazolium bromide, and is available from Sigma. Neuroprotection increased with increasing concentrations of DHLA.
as §1, with “To suppress glial growth. the cultures are treated with cytosine arabinoside (10^−5 M) for 4 days. All cultures are maintained in an incubator comprising 5% CO2 at 37° C. for about 6 days to about 15 days prior to use.” left out
Oxidative injury is assessed by using an MTT assay (Sigma, St. Louis, Mo.). […] About 200 μl aliquots are collected and the absorbance of these aliquots are measured on an ELISA plate reader at about 540 nm. Control (untreated) wells are included in each experiment, and viability is calculated as the percentage of mean control values for each plate.

## CC(C)(C)[N+]([O-])=Cc1ccccc1S(=O)(=O)O [SPBN, N-tert-Butyl-α-(2-sulfophenyl)nitrone, reference compound]
Cultured neurons; 10 mM SPBN co-incubated with 3-100 μM DHL
  effect on the neuroprotective efficacy of DHL: significantly increased

## CN(C)CCNC(=O)CCCCC1CCSS1.Cl (centres unmarked) [LA-plus, 2-(N,N-dimethylamine) ethylamido lipoate-HCL]
[1]
  in vitro protection against glutamate-induced loss of GSH, formation of peroxide and neurotoxicity, compared with ALA: better

## CC(C)(C)[N+]([O-])=Cc1ccccc1 [PBN, alpha-Phenyl-N-tert-butylnitrone, reference compound]
Cultured neurons; 10 mM PBN co-incubated with 3-100 μM DHL
  effect on the neuroprotective efficacy of DHL: significantly increased

## O=C(O)CCCC[C@@H](S)CCS (racemic) [DHL, dihydrolipoic acid]
Cultured neurons; DHL 3 μM, SPBN 0 mM
  % Neuroprotection: 1.31 ± 5.23%
Cultured neurons; DHL 10 μM, SPBN 0 mM
  % Neuroprotection: −3.68 ± 5.14%
Cultured neurons; DHL 30 μM, SPBN 0 mM
  % Neuroprotection: 7.04 ± 7.38%
Cultured neurons; DHL 100 μM, SPBN 0 mM
  % Neuroprotection: 28.48 ± 5.83%
Cultured neurons; Table 2 experiment: DHL 3 μM, PBN 0 mM
  % Neuroprotection: −1.3 ± 7.2%
Cultured neurons; Table 2 experiment: DHL 10 μM, PBN 0 mM
  % Neuroprotection: 22.2 ± 13.6%
Cultured neurons; Table 2 experiment: DHL 30 μM, PBN 0 mM
  % Neuroprotection: 22.1 ± 9.7%
Cultured neurons; Table 2 experiment: DHL 100 μM, PBN 0 mM
  % Neuroprotection: 36.9 ± 9.6%
rats
  protection against experimental spinal cord injury (motor scores): protective; also recorded: improve motor scores
[2]; DHLA co-applied with hemoglobin (no pre-incubation)
  neuroprotection against hemoglobin-induced toxicity (neuronal viability, MTT): no evidence of neuroprotection
[2]; pre-incubation about 4 hours, about 0.3 to about 10 micromolar DHLA, then about 10 micromoles hemoglobin for about 24 hours
  neuroprotection against hemoglobin-induced toxicity (neuronal viability, MTT): protective in a concentration-related manner
